In the experiment the target is Proto-oncogene tyrosine-protein kinase receptor Ret (Homo sapiens, UniProt P07949). The experiment in a line: Inhibition of RET (unknown origin) pre-incubated for 60 mins before substrate addition in presence of 9 uM ATP by microfluidic assay.

3 compounds from ChEMBL document CHEMBL3351388, “Identification of two novel RET kinase inhibitors through MCR-based drug discovery: design, synthesis and evaluation” (Eur J Med Chem, 2014) can be followed below.

A value given as a limit tells only on which side of the number the result lay.

Sequence of Proto-oncogene tyrosine-protein kinase receptor Ret (P07949 whole entry): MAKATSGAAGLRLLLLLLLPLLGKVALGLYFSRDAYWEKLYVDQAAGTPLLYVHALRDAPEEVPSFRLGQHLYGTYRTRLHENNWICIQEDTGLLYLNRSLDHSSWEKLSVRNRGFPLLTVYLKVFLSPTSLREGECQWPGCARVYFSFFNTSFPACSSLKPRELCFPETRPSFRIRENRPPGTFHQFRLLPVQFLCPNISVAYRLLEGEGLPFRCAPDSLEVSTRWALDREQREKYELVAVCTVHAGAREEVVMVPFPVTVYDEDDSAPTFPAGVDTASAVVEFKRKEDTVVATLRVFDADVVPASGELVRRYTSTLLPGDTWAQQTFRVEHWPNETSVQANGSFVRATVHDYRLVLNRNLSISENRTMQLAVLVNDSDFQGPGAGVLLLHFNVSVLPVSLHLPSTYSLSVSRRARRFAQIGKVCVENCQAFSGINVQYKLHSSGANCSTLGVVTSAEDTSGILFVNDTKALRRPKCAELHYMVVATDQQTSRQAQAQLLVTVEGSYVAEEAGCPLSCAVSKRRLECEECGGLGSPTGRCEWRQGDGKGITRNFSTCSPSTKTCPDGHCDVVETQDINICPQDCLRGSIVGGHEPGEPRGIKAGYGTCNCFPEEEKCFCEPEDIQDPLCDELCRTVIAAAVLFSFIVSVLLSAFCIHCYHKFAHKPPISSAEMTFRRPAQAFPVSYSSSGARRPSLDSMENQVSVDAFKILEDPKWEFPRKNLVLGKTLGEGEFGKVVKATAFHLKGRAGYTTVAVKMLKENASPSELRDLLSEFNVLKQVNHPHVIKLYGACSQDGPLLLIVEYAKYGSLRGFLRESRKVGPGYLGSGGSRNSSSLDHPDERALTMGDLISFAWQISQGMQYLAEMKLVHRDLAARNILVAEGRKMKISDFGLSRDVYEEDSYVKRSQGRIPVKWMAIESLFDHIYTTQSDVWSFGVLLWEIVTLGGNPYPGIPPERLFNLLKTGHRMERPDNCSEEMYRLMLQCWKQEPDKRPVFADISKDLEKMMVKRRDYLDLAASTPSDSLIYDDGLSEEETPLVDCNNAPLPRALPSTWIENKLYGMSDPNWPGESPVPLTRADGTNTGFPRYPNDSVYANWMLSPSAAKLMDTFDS

What is called IC50 is the concentration that inhibits the measured activity by half. Take `O=C(Cc1ccc(-c2ccc3nccn3c2)cc1)Nc1cccc(Br)c1`: the IC50 is greater than 100 µM. In the case of `Cc1cccc(NC(=O)Cc2ccc(-c3ccc4nccn4c3)cc2)c1` it was greater than 100 µM; in that of `O=C(Cc1ccc(-c2ccc3nccn3c2)cc1)Nc1cccc(F)c1`, greater than 100 µM.
